US20260124293A1 (priority 2022, published 2026)

Tested on: WT SARS-CoV-2 or OTS4-5-7-8 in VeroE6/TMPRSS2 cells
Type: cell-based

## CC(C)C(=O)OC[C@H]1O[C@@H](n2ccc(NO)nc2=O)[C@H](O)[C@@H]1O [molnupiravir]
  number of infectious virus particles in a TCID50 virus assay on adding a mutagen: reduced the number of infectious virus particles
